Results reported in patent US20240148664A1, “LIPID AND COMPOSITION” (SOGO PHARMACEUTICAL CO., LTD., priority 2021, published 2024).
Entries after “also recorded” stand apart in the source; their conditions may differ.

System: HEK293T cells and NIH3T3 cells
Experiment: Evaluation of toxicity (CellTiter-Fluor Cell Viability Assay, CTF)
Type: cell-based
Settings: lipid nanoparticle containing mRNA; number of surviving cells relative to cells without lipid nanoparticle set at 1; one rating per lipid, printed on the HEK293T line
Description: For lipids (Ia), (Ib), and (Ie) of Examples 1, 2, and 5, a cell experiment was carried out by using HEK293T cells and NIH3T3 cells in order to evaluate lipid nanoparticles encapsulating an mRNA. By transfecting the cells with lipid nanoparticles and measuring the amount of a predetermined protein produced, the performance of the lipid nanoparticles used can be evaluated. Hereinafter, the procedure of the cell experiment will be shown.
A. Seeding of Cells • (i) A liquid medium (DMEM High glucose, FBS+, P/S+) was temperature-controlled in an incubator set at 37° C. • (ii) A cryotube containing cells was taken out from a −80° C. freezer and thawed at once in the incubator set at 37° C. • (iii) A test tube was subjected to a centrifuge to precipitate the cells. • (iv) The supernatant was aspirated, and the liquid medium was added and gently tapped to disperse the cells. • (v) A small amount of the cells-dispersed liquid medium was collected, and the number of cells was observed and counted under a microscope. • (vi) The cells were seeded in three 24-well black plates such that the number of cells was 1×10^4 cells per well. The 24-well black plates were placed in an incubator, and the cells were cultured for 24 hours under conditions of 37° C. and 5% CO2. […]
D. Evaluation of Toxicity (CellTiter-Fluor (Registered Trademark) Cell Viability Assay) • (i) The CellTiter-Fluor (registered trademark) Cell Viability (CTF) Assay Reagent was completely thawed in a 37° C. water bath. • (ii) GF-AFC Substrate was uniformly mixed by using a vortex mixer. • (iii) The required amounts of Buffer and GF-AFC Substrate attached to the CTF Assay Reagent (Kit) were mixed at a mixing ratio of 10 mL:10 μL. • (iv) 100 μL per well of the mixed CTF Reagent mixture was added to a 24-well black plate containing the cells cultured in B. (v) above, and the plate was quickly shielded from light with aluminum foil, and then shaken on a plate shaker for 30 seconds. • (v) The plate was placed in an incubator, […], and the cells were cultured for 30 minutes under conditions of 37° C. and 5% CO2. • (vi) The fluorescence intensity was measured with a plate reader (excitation wavelength of 380 nm, fluorescence wavelength of 505 nm). Based on the obtained measurement results, the number of surviving cells was calculated with the fluorescence intensity of cells to which no lipid nanoparticle was added set at 1. […]

## CCCCCCCC/C=C\CCCCCCCCC(CCCCCCC/C=C\CCCCCCCC)OC(=O)C(CC(=O)O)NC(=O)C(N)CCCNC(=N)N (stereo not drawn) [Example 1, 3-(2-amino-5-guanidinopentanamido)-4-(((9Z,27Z)-hexatriaconta-9,27-dien-18-yl)oxy)-4-oxobutanoic acid]
  CTF Assay: low cytotoxicity; also recorded: ⊚ (When the number of surviving cells was more than 0.80 and 1.00 or less, a rating of double-circle (excellent) was given)

## CCCCCCCC/C=C\CCCCCCCCC(CCCCCCC/C=C\CCCCCCCC)OC(=O)C(CCC(=O)O)NC(=O)C(N)CCCNC(=N)N (stereo not drawn) [Example 2, 4-(2-amino-5-guanidinopentanamido)-5-(((9Z,27Z)-hexatriaconta-9,27-dien-18-yl)oxy)-5-oxopentanoic acid]
  CTF Assay: low cytotoxicity; also recorded: ⊚ (When the number of surviving cells was more than 0.80 and 1.00 or less, a rating of double-circle (excellent) was given)

## CCCCCCCC/C=C\CCCCCCCCC(CCCCCCC/C=C\CCCCCCCC)OC(=O)C(NC(=O)C(N)CCCNC(=N)N)C(C)O [Example 5, (9Z,27Z)-hexatriaconta-9,27-dien-18-yl (2S)-2-((S)-2-amino-5-guanidinopentanamido)-3-hydroxybutanoate]
  CTF Assay: low cytotoxicity; also recorded: ⊚ (When the number of surviving cells was more than 0.80 and 1.00 or less, a rating of double-circle (excellent) was given)
